Patent publication US8637480B2, “Mitochondrial function-improving agent” (National University Corporation Kumamoto University, priority 2009, dated 2014)
d = 2'-deoxy (DNA); r = 2'-OH (RNA)

Experiments:
[1] = tested on: LSD1 target genes in 3T3-L1 cells; test: Comprehensive analysis of LSD1 target genes in 3T3-L1 cells using microarray; assay type: cell-based, mouse; details: for expression of the LSD1 target candidates (microarray): tranylcypromine 10^−4 M
Description: (1) Comprehensive Analysis of LSD1 Target Genes in 3T3-L1 Cells, Using Microarray (FIG. 1)
An adipogenesis induction medium was prepared by dissolving […] 3-isobutyl-1-methylxanthine, 1 μM dexamethasone and 5 μg/ml insulin in a Dulbecco's modified Eagle's medium containing 10% fetal bovine serum. Total RNA was extracted using RNeasy mini column (Qiagen). Using GeneChip Mouse Genome Array 430—2 in combination with GeneChip Hybridization, Wash and Stain Kit (Affymetrix), genome-wide expression analysis was carried out
Thereafter, RNA analysis was carried out as described above. Using GeneChip Mouse Genome Array 430—2 in combination with GeneChip Hybridization, Wash and Stain Kit (Affymetrix), genome-wide expression analysis was carried out.

[2] = tested on: mPGC-1α promoter (pGL3-PGC-1α reporter) in 3T3-L1 cells; test: PGC-1α promoter activity by luciferase assay; assay type: cell-based, mouse; details: adipose differentiation induced for 24 hours
Description: (4) Analysis of PGC-1α Promoter Activity by Luciferase Assay (FIG. 5)
In order to construct pGL3-PGC-1α (PGC-1α/Luc) that is a luciferase reporter vector containing an mPGC-1α promoter, a 3707 bps promoter fragment from −3627 to +80 was amplified by PCR, using primers containing a MluI site and a XhoI site at the 5′-terminus and 3′-terminus thereof, respectively. Luciferase assay was carried out using Dual-Luciferase Reporter Assay System (Promega) in accordance with protocols included therewith. 3T3-L1 cells were co-transfected with the pGL3-PGC-1α reporter vector and a pRL-TK reference vector, and adipose differentiation was induced in the presence or absence of TC for 24 hours. Thereafter, luciferase activity was measured. When siRNA was applied, it was introduced 24 hours before transfection with the reporter.

[3] = tested on: 3T3-L1 cells; test: Mitochondrial biosynthesis in 3T3-L1 cells by JC-1 staining and flow cytometry; assay type: cell-based, mouse; details: tranylcypromine 10^−3 or 10^−4 M, flow cytometry
Description: For the measurement of mitochondrial biosynthesis, cells were stained with a fluorescent dye JC-1 (Molecular Probes), and they were then analyzed by flow cytometry. JC-1 binds to the mitochondrial inner membrane to emit green fluorescence, and forms a red fluorescent aggregate, depending on membrane potential. Accordingly, the amount of mitochondria can be evaluated by detecting the green fluorescence, whereas the amount of mitochondrial electron transport can be evaluated by detecting the red fluorescence. […] Subsequently, the cells were allowed to come into contact with 5 μg/ml JC-1 in a medium at 37° C. for 15 minutes, and they were then suspended in PBS, followed by FACS analysis. The green fluorescence and the red fluorescence were detected by FL1 and FL2 settings, respectively. The value indicates a mean fluorescence intensity in each setting.

[4] = tested on: dimethylated H3K4 at LSD1 target gene promoters in 3T3-L1 cells; test: Chromatin immunoprecipitation (ChIP) assay for methylation of H3K4; assay type: cell-based, mouse
Description: (3) Chromatin Immunoprecipitation (ChIP) Assay for Detecting Methylation of 4th Lysine Residue of Histone H3 (H3K4) and Binding of LSD1 (FIG. 3 and FIG. 4)
A DNA-protein complex of 3T3-L1 cells was crosslinked using 1% formalin, and chromatin was then fragmented using a water tank ultrasonic processor. The chromatin fragments were incubated at 4° C. overnight in the presence of an antibody directed against methyl-H3K4, LSD1 or BHC80. Thereafter, the reaction product was recovered using agarose beads to which protein A and protein G had been bound. DNA was isolated, and real-time PCR was then carried out using the following primer set

[5] = tested on: PGC-1α gene expression in 3T3-L1 cells; test: Expression analysis of PGC-1α gene and the like by quantitative real-time PCR; assay type: cell-based, mouse; details: standardized against 36B4, versus control siRNA or vehicle
Description: (2) Expression Analysis of PGC-1α gene and the Like by Quantitative Real-time PCR (FIG. 2)
Total RNA was extracted using Trizol reagent (Invitrogen). Quantitative RT-PCR was carried out using Fast SYBR Green System (Applied Biosciences). […] The value is given as a multiple of induction to a sample into which control siRNA has been introduced or a sample treated with a vehicle. Statistical significant difference is indicated by *p<0.05, **p<0.01, with respect to control (the same applies below). The following primers were used.

[6] = tested on: LSD1 target genes such as PGC-1α in 3T3-L1 cells; details: 24 hours, 10^−4 M (clorgyline 10^−5 M)
Description: (12) Effects of Various Types of MAO Inhibitors on LSD1 Target Gene Group (FIG. 13)
Thereafter, RNA analysis was carried out. Expression analysis was carried out as described above. The expression level of PGC-1α or the like was standardized against the internal control gene 36B4. The value was given as a multiple of induction to a control treated with a vehicle.

[7] = tested on: LSD1 target genes including PGC-1α; details: high fat diet 6 weeks, 10 mg/kg intraperitoneally every other day, versus PBS
[8] = tested on: FAD in 3T3-L1 cells; test: Amount of FAD in cells (FAD assay kit); assay type: cell-based, mouse; details: FAD synthesis inhibited
Description: (§1) Using Trizol reagent (Invitrogen), total RNA was extracted from 3T3-L1 cells in which siRNA against riboflavin kinase (RFK) or FAD synthase (FADS) had been introduced. […] Using FAD assay kit (BioVision), the amount of FAD in the cells was measured under inhibition of FAD synthesis.

[9] = tested on: LSD1 target genes such as PGC-1α in 3T3-L1 cells; test: Expression of LSD1 target genes under inhibition of enzymes associated with FAD synthesis (quantitative RT-PCR); assay type: cell-based, mouse; details: siRNA against FAD synthesis enzymes
Description: (8) Induction of Expression of LSD1 Target Genes by Inhibition of Enzyme Associated with FAD Synthesis (FIG. 9)
as §1

[10] = 3T3-L1 cells, 24 hours differentiation induction

Molecule | expression of the LSD1 target candidates (microarray) [1, 10] | expression of luciferase reporter gene downstream of the PGC-1α promoter [2] | amount of mitochondria (JC-1 green fluorescence, FL1) [3] | mitochondrial membrane potential (JC-1 red fluorescence, FL2) [3] | amount of dimethylated H3K4 in other LSD1 target gene promoters such as PDK4 [4] | expression of genes such as PGC-1α (quantitative RT-PCR) [5] | amount of FAD in a cell [8] | expression of LSD1 target genes such as PGC-1α [9] | further results
N[C@@H]1C[C@H]1c1ccccc1 (racemic) [tranylcypromine, reference compound] | induced | activated (disinhibited) | stimulatory effect | stimulatory effect | The same results were obtained | Induction of the expression |  |  | amount of dimethylated H3K4 in PGC-1α promoter ([4]; under treatment): increase in the amount of dimethylated H3K4 was detected; activation of LSD1 target genes such as PGC-1α compared with other MAO inhibitors [6]: significant activation; expression of LSD1 target genes including PGC-1α in fat around the testis [7]: increased; expression of LSD1 target genes including PGC-1α in the liver [7]: The same results as described above were obtained
BHC80 siRNA: siRNA against LSD1 coupling factor BHC80: sense SEQ ID NO: 31, antisense SEQ ID NO: 32 (sense GUUCCAGAUACAGCCAUUGTT; antisense CAAUGGCUGUAUCUGGAACTT; sugars from the 5' end r19 d2, backbone not given here) | induced |  |  |  |  | Induction of the expression |  |  | 
FADS siRNA: siRNA against FAD synthase: sense SEQ ID NO: 35, antisense SEQ ID NO: 36 (sense GAGCCCUUGGAGGAAUGUCTT; antisense GACAUUCCUCCAAGGGCUCTT; sugars from the 5' end r19 d2, backbone not given here) |  |  |  |  |  |  | decreased | activated | 
LSD1 siRNA: siRNA against LSD1: sense SEQ ID NO: 29, antisense SEQ ID NO: 30 (sense CACAAGGAAAGCUAGAAGATT; antisense UCUUCUAGCUUUCCUUGUGTT; sugars from the 5' end r19 d2, backbone not given here) |  | activated (disinhibited) | the same results were obtained | the same results were obtained | The same results were obtained | Induction of the expression |  |  | number of target candidates induced to a higher level (2-fold or more) ([1]; differentiating 3T3-L1 cells, 24 hours in differentiation induction medium, microarray): 601; amount of dimethylated H3K4 in PGC-1α gene promoter versus control [4]: approximately 2 fold
RFK siRNA: siRNA against riboflavin kinase: sense SEQ ID NO: 33, antisense SEQ ID NO: 34 (sense UCUUCCAGCUGAUGUGUCUTT; antisense AGACACAUCAGCUGGAAGATT; sugars from the 5' end r19 d2, backbone not given here) |  |  |  |  |  |  | decreased | activated | expression of a majority of LSD1 target genes (microarray) ([1]; 3T3-L1 cells, RFK knock-down, 24 hours differentiation induction): induced
